Assay results from US20020061888A1, “Combination therapy for the prophylaxis and treatment of hyperlipidemic conditions and disorders” (priority 2000, published 2002).

Assays:
Type in all cases: in vivo
Male beagle dogs [1] = assay: Serum triglyceride in beagle dogs; settings: n = 6
Description: (§1) Following this initial four week dose-ranging study, dogs from the two groups receiving 10 mg/kg/day pravastatin (a.m. and p.m. dosing groups) were randomized into two new treatment groups based on serum total cholesterol levels to initiate the combination treatment study. […] Dosing continued in this manner for an additional four weeks (Weeks 5-8) with blood and 48-hour fecal samples collected at the end of each week for serum lipid measurements and fecal bile acid determinations, respectively. […] At the end of this three-week period, pravastatin dosing and all empty capsule dosing were discontinued and blood samples were collected weekly for a final three weeks (weeks 12-14) to monitor the return of serum total cholesterol levels back to baseline.
Blood was collected from the cephalic vein of each dog into serum separator tubes. The blood was centrifuged at 900×g for 20 minutes at room temperature and the serum decanted. All analyses were performed on a Cobas Mira Clinical Analyzer System (Roche Diagnostic Systems, Branchburg, N.J.) using Roche Diagnostic reagents for enzymatic determinations of serum cholesterol and triglycerides. Commercial calibrator and quality control materials were analyzed with each run to verify assay accuracy and precision. A two-tailed, paired Students t-test was used to determine the statistical significance of changes in total serum cholesterol in treated animals compared to their pretreatment values. A two-sample, two-tailed unequal variance Students t-test was used to determine serum total cholesterol and triglyceride changes in the combination therapy group compared to the monotherapy groups. […]

Male beagle dogs [2] = assay: Fecal bile acid concentration in beagle dogs (enzymatic 3α-hydroxysteroid dehydrogenase assay of fecal extracts); settings: for FECAL BILE ACID CONCENTRATION: n = 6; for % change in fecal bile acid: Week 2, footnote: vs pretreatment, text b128: vs vehicle
Description: Male beagle dogs (9-10 kg) obtained from Marshall farms were fed a normal chow diet once a day for a two hour interval and given water ad libitum. Prior to initiating treatment, the dogs were weighed and blood samples were drawn from the cephalic vein of each dog following an overnight fast to evaluate pretreatment serum total cholesterol levels at the start of the study. […] All doses were administered in gelatin capsules per os to each dog between 9:00-9:30 a.m. prior to feeding. All animals were fed between 9:30-10:00 a.m. and were allowed two hours to eat, at which time any remaining food was removed. […] Three consecutive 24 hour fecal samples were collected for each group during the last 72 hours of each week and used to measure the concentration of fecal biles acids excreted during that time period.
Fecal samples were collected to determine the fecal bile acid (“FBA”) concentration for each animal. Three consecutive 24 hour fecal samples were collected between 8:00 a.m. and 9:00 a.m. each day, prior to dosing and feeding, during the last 72 hour period of each week. The separate daily collections from each dog were weighed, combined and homogenized with distilled water in a food processor to generate a homogeneous slurry. A 1.4 g sample of fecal homogenate was extracted with 2.6 mL of a solution containing tertiary butanol:distilled water in the ratio of 2:0.6 (final concentration of 50% tertiary butanol v/v distilled water) for 45 minutes in a 37° C. water bath and centrifuged for 13 minutes at 2000 x g. The concentration of bile acids (μmoles/gram homogenate) was determined using a 96-well enzymatic assay system described in van der Meer et al., “t-Butanol Extraction of Feces: A Rapid Procedure For Enzymic Determination Of Fecal Bile Acids”, Cholesterol, Metabolism in Health and Disease: Studies in the Netherlands, edited by Beynen, et al., Ponsen and Looyen, Wageningen, 1985; and Turley et al., “Re-evaluation of the 3 Alpha-Hydroxysteroid Dehydrogenase Assay For Total Bile Acids In Bile”, J. Lipid Research, 19:924-928, 1978.
A 20 μL aliquot of each fecal extract was added to each of two sets of triplicate wells in a 96-well assay plate. A standardized sodium taurocholate solution and a standardized fecal extract solution (previously made from pooled samples and characterized for its bile acid concentration) were also analyzed for assay quality control. A standard curve of five points containing 30-540 nmoles/well was generated by serial dilutions of an initial 20 μL aliquot of 90 mM sodium taurocholate. A 230 μL aliquot of a reaction mixture containing 1M hydrazine hydrate, 0.1 M pyrophosphate and 0.46 mg/ml NAD was added to each well. Subsequently, a 50 μL aliquot of either 3α-hydroxysteroid dehydrogenase (“HSD”) enzyme (0.8 units/mL) or assay buffer (0.1 M sodium pyrophosphate) was then added to one each of the two sets of triplicates. Following 60 minutes of incubation at room temperature, the optical density at 340 nm was measured and the mean of each set of triplicate samples was calculated. The difference in optical density with and without HSD enzyme was used to determine the bile acid concentration (mM) of each sample based on the sodium taurocholate standard curve. The bile acid concentration of the extract (μmoles/gram homogenate), the total weight of the fecal homogenate (grams) and the body weight of the dogs (kg) were used to calculate the corresponding fecal bile acid concentration in μtmoles/kg/day for each animal.
All reagents used for the assay were obtained from Sigma Chemical Co., St. Louis, Mo. (HSD enzyme—catalog # H-1506; NAD—catalog # N1636; sodium taurocholate—catalog # T-4009).

Male beagle dogs [3] = assay: Body or fecal weights, stool consistency, general animal health of treated beagle dogs; settings: any of the groups
Description: Male beagle dogs (9-10 kg) obtained from Marshall farms were fed a normal chow diet once a day for a two hour interval and given water ad libitum. Prior to initiating treatment, the dogs were weighed and blood samples were drawn from the cephalic vein of each dog following an overnight fast to evaluate pretreatment serum total cholesterol levels at the start of the study. […] All doses were administered in gelatin capsules per os to each dog between 9:00-9:30 a.m. prior to feeding. All animals were fed between 9:30-10:00 a.m. and were allowed two hours to eat, at which time any remaining food was removed. […] Animals were dosed daily for three weeks and blood samples were taken at the end of each week after an overnight fast for comparison with pretreatment serum total cholesterol levels. Three consecutive 24 hour fecal samples were collected for each group during the last 72 hours of each week and used to measure the concentration of fecal biles acids excreted during that time period.
as §1
Male beagle dogs (9-10 kg) obtained from Marshall farms were fed once a day for two hours and given water ad libitum.

[4] = compound A-5 monotherapy 4.0 mg/kg/day, dosed Weeks 5-8, Week 5, mean ± SEM
[5] = compound A-5 monotherapy 4.0 mg/kg/day, dosed Weeks 5-8, Week 6, mean ± SEM
[6] = compound A-5 monotherapy 4.0 mg/kg/day, dosed Weeks 5-8, Week 7, mean ± SEM
[7] = compound A-5 monotherapy 4.0 mg/kg/day, dosed Weeks 5-8, Week 8, mean ± SEM
[8] = compound A-5 monotherapy group, dosing terminated after Week 8, Week 9, mean ± SEM
[9] = compound A-5 monotherapy group, dosing terminated after Week 8, Week 10, mean ± SEM

**Q.** For `CCCCC1(CC)CS(=O)(=O)c2ccc(N(C)C)cc2[C@@H](c2cccc(OCc3ccc(C[N+]45CCN(CC4)CC5)cc3)c2)[C@H]1O.[Cl-]` (stereo partly drawn) [Compound A-5], which “TOTAL SERUM TRIGLYCERIDE” value (Male beagle dogs [1]; [4]) is on record?
**A.** 37 ± 3 mg/dL

**Q.** What about the “TOTAL SERUM TRIGLYCERIDE” value (Male beagle dogs [1]; [5]) of the same compound?
**A.** 32 ± 3 mg/dL

**Q.** And the “TOTAL SERUM TRIGLYCERIDE” value (Male beagle dogs [1]; [6])?
**A.** 36 ± 3 mg/dL

**Q.** What about the “TOTAL SERUM TRIGLYCERIDE” value (Male beagle dogs [1]; [7]) of the same compound?
**A.** 34 ± 3 mg/dL

**Q.** And the “TOTAL SERUM TRIGLYCERIDE” value (Male beagle dogs [1]; [8])?
**A.** 39 ± 3 mg/dL

**Q.** What about the “TOTAL SERUM TRIGLYCERIDE” value (Male beagle dogs [1]; [9]) of the same compound?
**A.** 42 ± 4 mg/dL

**Q.** What about the “TOTAL SERUM TRIGLYCERIDE” value (Male beagle dogs [1]; compound A-5 monotherapy group, dosing terminated after Week 8, Week 11, mean ± SEM) of the same compound?
**A.** 34 ± 3 mg/dL

**Q.** What about the “TOTAL SERUM TRIGLYCERIDE” value (Male beagle dogs [1]; compound A-5 monotherapy group, dosing terminated after Week 8, Week 12, mean ± SEM) of the same compound?
**A.** 51 ± 5 mg/dL

**Q.** And the “TOTAL SERUM TRIGLYCERIDE” value (Male beagle dogs [1]; compound A-5 monotherapy group, dosing terminated after Week 8, Week 13, mean ± SEM)?
**A.** 46 ± 3 mg/dL

**Q.** What about the “return of fecal bile acid levels to their pretreatment levels after the last day of compound A-5 dosing” value (Male beagle dogs [2]; Example 3, 4.0 mg/kg/day compound A-5 for four weeks, alone or with 10 mg/kg/day pravastatin) of the same compound?
**A.** within one week

**Q.** And the “FECAL BILE ACID CONCENTRATION” value (Male beagle dogs [2]; compound A-5 0.22 mg/kg/day per os, Week 1, mean ± SEM)?
**A.** 89 ± 9^3 μmol/day/kg

**Q.** And the “% change in fecal bile acid” value (Male beagle dogs [2]; compound A-5 0.22 mg/kg/day per os)?
**A.** (270) %

**Q.** And the “FECAL BILE ACID CONCENTRATION” value (Male beagle dogs [2]; compound A-5 0.22 mg/kg/day per os, Week 2, mean ± SEM)?
**A.** 100 ± 11^3 μmol/day/kg

**Q.** And the “FECAL BILE ACID CONCENTRATION” value (Male beagle dogs [2]; compound A-5 0.22 mg/kg/day per os, Week 3, mean ± SEM)?
**A.** 81 ± 7^3 μmol/day/kg

**Q.** What about the “FECAL BILE ACID CONCENTRATION” value (Male beagle dogs [2]; compound A-5 0.66 mg/kg/day per os, Week 1, mean ± SEM) of the same compound?
**A.** 134 ± 19^3 μmol/day/kg

**Q.** And the “% change in fecal bile acid” value (Male beagle dogs [2]; compound A-5 0.66 mg/kg/day per os)?
**A.** (396) %

**Q.** What about the “FECAL BILE ACID CONCENTRATION” value (Male beagle dogs [2]; compound A-5 0.66 mg/kg/day per os, Week 2, mean ± SEM) of the same compound?
**A.** 134 ± 16^3 μmol/day/kg

**Q.** What about the “FECAL BILE ACID CONCENTRATION” value (Male beagle dogs [2]; compound A-5 0.66 mg/kg/day per os, Week 3, mean ± SEM) of the same compound?
**A.** 126 ± 12^3 μmol/day/kg

**Q.** And the “FECAL BILE ACID CONCENTRATION” value (Male beagle dogs [2]; compound A-5 2.0 mg/kg/day per os, Week 1, mean ± SEM)?
**A.** 168 ± 13^3 μmol/day/kg

**Q.** And the “% change in fecal bile acid” value (Male beagle dogs [2]; compound A-5 2.0 mg/kg/day per os)?
**A.** (411) %

**Q.** And the “FECAL BILE ACID CONCENTRATION” value (Male beagle dogs [2]; compound A-5 2.0 mg/kg/day per os, Week 2, mean ± SEM)?
**A.** 138 ± 12^3 μmol/day/kg

**Q.** And the “FECAL BILE ACID CONCENTRATION” value (Male beagle dogs [2]; compound A-5 2.0 mg/kg/day per os, Week 3, mean ± SEM)?
**A.** 164 ± 11^3 μmol/day/kg

**Q.** And the “FECAL BILE ACID CONCENTRATION” value (Male beagle dogs [2]; compound A-5 6.0 mg/kg/day per os, Week 1, mean ± SEM)?
**A.** 190 ± 18^3 μmol/day/kg

**Q.** What about the “% change in fecal bile acid” value (Male beagle dogs [2]; compound A-5 6.0 mg/kg/day per os) of the same compound?
**A.** (674) %

**Q.** And the “FECAL BILE ACID CONCENTRATION” value (Male beagle dogs [2]; compound A-5 6.0 mg/kg/day per os, Week 2, mean ± SEM)?
**A.** 209 ± 27^3 μmol/day/kg

**Q.** And the “FECAL BILE ACID CONCENTRATION” value (Male beagle dogs [2]; compound A-5 6.0 mg/kg/day per os, Week 3, mean ± SEM)?
**A.** 179 ± 16^3 μmol/day/kg

**Q.** What about the “% change in fecal bile acid concentration from Week 0” value (“% change … from Week 0” below) (Male beagle dogs [2]; compound A-5 monotherapy 4.0 mg/kg/day, dosed Weeks 5-8, Week 5) of the same compound?
**A.** (+293)^4%

**Q.** And the “FECAL BILE ACID CONCENTRATION” value (Male beagle dogs [2]; [4])?
**A.** 106 ± 13^3 μmol/kg/day

**Q.** And the “% change … from Week 0” value (Male beagle dogs [2]; compound A-5 monotherapy 4.0 mg/kg/day, dosed Weeks 5-8, Week 6)?
**A.** (+374) %

**Q.** What about the “FECAL BILE ACID CONCENTRATION” value (Male beagle dogs [2]; [5]) of the same compound?
**A.** 128 ± 17^3 μmol/kg/day

**Q.** What about the “% change … from Week 0” value (Male beagle dogs [2]; compound A-5 monotherapy 4.0 mg/kg/day, dosed Weeks 5-8, Week 7) of the same compound?
**A.** (+578) %

**Q.** And the “FECAL BILE ACID CONCENTRATION” value (Male beagle dogs [2]; [6])?
**A.** 183 ± 39^3 μmol/kg/day

**Q.** And the “FECAL BILE ACID CONCENTRATION” value (Male beagle dogs [2]; [7])?
**A.** 109 ± 23^3 μmol/kg/day

**Q.** And the “% change … from Week 0” value (Male beagle dogs [2]; compound A-5 monotherapy group, dosing terminated after Week 8, Week 9)?
**A.** (+48) %

**Q.** What about the “FECAL BILE ACID CONCENTRATION” value (Male beagle dogs [2]; [8]) of the same compound?
**A.** 40 ± 6 µmol/kg/day

**Q.** What about the “% change … from Week 0” value (Male beagle dogs [2]; compound A-5 monotherapy group, dosing terminated after Week 8, Week 10) of the same compound?
**A.** (+59) %

**Q.** What about the “FECAL BILE ACID CONCENTRATION” value (Male beagle dogs [2]; [9]) of the same compound?
**A.** 43 ± 4 µmol/kg/day

**Q.** And the “changes in body or fecal weights, stool consistency or general animal health” value (Male beagle dogs [3]; Example 1, compound A-5 0.22-6.0 mg/kg/day for three weeks)?
**A.** no significant changes

**Q.** And the “changes in body or fecal weights, stool consistency or general animal health” value (Male beagle dogs [3]; Example 3 study (pravastatin 3-30 mg/kg/day, compound A-5 4.0 mg/kg/day, combination))?
**A.** no significant changes
